Source: US9950062B2, “Compounds and compositions as TLR activity modulators” (priority 2009, dated 2018)
One block for each compound: values may come before it.

Columns and labels:
[1] = Binding to aluminum hydroxide adjuvant, HPLC of supernatant; format: physicochemical; conditions: 100 μg/dose, room temperature and 37° C., 1, 5 and 24 hours
Method: The binding of the compounds of Formula (I) provided herein to aluminum-containing adjuvants at pH 9 and pH 6.5 was evaluated using HPLC to monitor the presence of the compound of Formula (I) in the supernatant.
(§1) Compound 1 (0.5 mg/mL) was dissolved in 10 mM NaOH and added to aluminum hydroxide adjuvant (2 mg/mL) resulting in a 100 μg/dose formulation. The supernatant was evaluated with HPLC using a ballistic gradient (from 10% CH3CN-0.1% TFA to 100% CH3CN-0.1% TFA in 2.5 minutes) on a C18 ([…]×4.6 mm) ACE column at 45° C. To evaluate the effect of supernatant temperature and incubation time on binding, the supernatant was evaluated at a supernatant temperature of room temperature and at 37° C. after 1 hour, 5 hours and 24 hours. A control without aluminum hydroxide was also evaluated.
as §1, with “Compound 5 (1” for “Compound 1 (0.5”, “to aluminium” for “to aluminum”
as §1, with “to aluminium” for “to aluminum”, “formulation. The pH of the solution was adjusted to pH 6.5 using HCl.” for “formulation.”
as §1, with “Compound 5 (1” for “Compound 1 (0.5”, “mM histidine buffer (1 mg/mL)” for “mM NaOH”, “to aluminium” for “to aluminum”

[2] = Phosphate desorption and organic solvent extraction from aluminum hydroxide, HPLC; format: physicochemical
Method: An organic solvent extraction method was used to evaluate whether compound 1 was covalently bound to aluminum hydroxide. The formulation was prepared as follows: 2 mg/ml aluminum hydroxide, 100 μg/dose compound 1, 10 mM histidine buffer) and the pH was adjusted to 9. A control formulation without aluminum hydroxide was also prepared.
One ml of the formulation containing Alum was mixed with 1 ml of KH2PO4 1M pH 9 (0.5M final conc, pH 9) and was left in gentle agitation overnight at 37° C. to allow desorption of compound 1 (compound 5) from the aluminum hydroxide via ligand exchange with the phosphate anions. Organic extraction was then performed: 1 ml of each sample was mixed with 1 ml of n-butanol and vortexed. After the formation of 2 phases, the upper phase (butanol) was recovered, dried with N2 and resuspended in MeOH/10 mM NaOH. HPLC analysis was run both for the formulation supernatants and for the butanol extracted samples (C18 column; 0-100% B in 2 min; A=0.1% TFA in H2O; B=0.1% TFA in ACN). […]

[3] = Confocal microscopy of aluminium hydroxide adjuvant mixed with compound; format: physicochemical; conditions: adjuvant 3 mg/ml, compound 0.25 mg/ml
From the text: Compound 1 is intrinsically fluorescent.

[4] = Solubility; format: physicochemical
[5] = Muscle levels 24 hours after intramuscular injection; conditions: 24 hours after intramuscular injection (100 μg) with protein antigens, Balb/C mice
[6] = Systemic serum exposure after intramuscular injection; format: in vivo; conditions: intramuscular injection 100 μg (4 mg/kg), Balb/C mice
Method: Systemic serum exposure of the compounds is followed for 24 hours.

[7] = Adsorption to and desorption from aluminum hydroxide, HPLC (compound-modified alum formulation); format: physicochemical; conditions: alum formulation as for compound 1
Method: SDS-PAGE was used to evaluate the effect of the binding of compound 1 to aluminum hydroxide adjuvant on the ability of MenB antigens to bind to aluminum hydroxide adjuvant. Compound 1 was dissolved in 10 mM NaOH at 0.5 mg/ml final concentration. Alum and Compound 1 were combined at 1:6 (Compound 1:Alum) weight ratio in the presence of 10 mM Histidine final concentration. The pH was adjusted to 9.2 and the mixture was gently agitated for 3 hours at room temperature, allowing the reaction to occur. The mixture was centrifuged at 5000×g for 10 minutes and the supernatant discarded. The pellet (i.e. the compound 1-modified Alum) was resuspended in the initial Alum buffer to obtain the starting alum concentration. The pH was adjusted to 6.5. The modified Alum was then used for the formulation with the MenB antigens.
The adsorption of compound 16 and compound 17 to aluminum hydroxide was also evaluated using the alum formulation described above for compound 1. […] In addition, SDS-PAGE analysis of antigen binding in the presence of compound 16 or compound 17 was carried out as described above.

[8] = Adsorption to aluminum hydroxide, LC-MS/MS of supernatant
Method: The resulting solution was diluted 10-fold with blank histidine buffer to a final compound concentration of 0.1 mg/mL. Diluted solutions were incubated at 37° C. for 5 hours. The samples were centrifuged at 14,000 rpm for 10 minutes to pellet the insoluble. The supernatant (along with an internal standard) was then evaluated by LC-MS/MS using a ballistic gradient (from 5% CH3CN-0.5% formic acid to 95% CH3CN-1.0% formic acid in 3.5 minutes) on a Waters Atlantis dC18 (50 mm×2.1 mm) column at room temperature against a calibration curve prepared at known compound concentrations ranging from 0.005 to 50 μM. The concentration in the supernatant was calculated as % unbound to alum compared to control; the % bound to alum was calculated as 100% minus % unbound.

[9] = test system: strain NZ98; test: Serum bactericidal antibody (SBA) assay after immunization with 5CVMB; format: in vivo, MenB; conditions: compound pre-adsorbed to aluminium hydroxide adjuvant (25 μg or 100 μg) vs adjuvant alone or compound alone
Method: The MenB antigens are tested for in vivo immunogenic potency using a serum bactericidal antibody (SBA) assay.

[10] = test system: serum cytokines (IL-6, mKC, MCP-1); test: Serum cytokines 24 hours after immunization; format: in vivo
Method: Serum cytokines are measured 24 hours after immunization with compound 6, with or without aluminium hydroxide adjuvant, or with buffer alone. Levels of IL-6 and mKC are both about ˜4-fold higher after administration of compound 6 without adjuvant, and levels of MCP-1 are ˜20-fold higher (compared to vehicle alone). […] Similarly, adsorption to aluminium hydroxide adjuvant decreases both the proportion of CD4+ T-cells which are also CD69+ and the proportion of CD19+ B-cells which are also CD86+, and this effect is seen in both the spleen and in draining lymph nodes. For example, adsorption reduces the proportion of CD86+ B-cells from ˜75% to ˜15%.

[11] = test system: CD4+ T-cells, CD19+ B-cells; test: Activation markers on T-cells and B-cells in spleen and draining lymph nodes; format: in vivo
[12] = pH 9, 10 mM NaOH, aluminum hydroxide 2 mg/mL
[13] = with aluminium hydroxide adjuvant
[14] = without aluminium hydroxide adjuvant
[15] = adsorbed to aluminium hydroxide adjuvant
[16] = 10 mM histidine buffer pH 6.8, final compound concentration 0.1 mg/mL, 37° C. for 5 hours, 100% minus % unbound
[17] = in combination with aluminium hydroxide adjuvant

SMILES: Cc1ccc2c(c1)nc(N)c1ncc(CCc3ccc(OCCCP(=O)(O)O)cc3C)cc12 [Compound 1, 3-(4-(2-(5-amino-8-methylbenzo[f][1,7]naphthyridin-2-yl)ethyl)-3-methylphenoxy)propylphosphonic acid]
presence of compound in supernatant when aluminum hydroxide included (HPLC) ([1]; pH 6.5 (adjusted with HCl), aluminium hydroxide 2 mg/mL): not present in the supernatant
presence of compound in supernatant when aluminum hydroxide included (HPLC) [1, 12]: not present in the supernatant
quantity of compound in supernatant of formulation treated with KH2PO4 (desorption by phosphate anions) ([2]; 0.5M KH2PO4 pH 9, overnight at 37° C.): Increased quantities
Concentration ([2]; control/extract: n-butanol extract of control formulation without aluminum hydroxide): 217 ± 1 µg/mL
Concentration ([2]; extaract: n-butanol extract of formulation with alum): 27 ± 1 µg/mL
Concentration ([2]; phosphate supernatant: formulation with alum treated with 0.5M KH2PO4 pH 9 overnight at 37° C.): 59 ± 1 µg/mL
Concentration ([2]; phosphate/extract: n-butanol extract of KH2PO4-treated formulation with alum): 119 ± 1 µg/mL
Concentration ([2]; supernatant control: formulation without aluminum hydroxide): 329 ± 1 µg/mL
Concentration ([2]; supernatant of formulation with 2 mg/ml aluminum hydroxide, 10 mM histidine buffer, pH 9): 5 ± 1 µg/mL
association with aluminium hydroxide adjuvant particles (confocal microscopy) [3]: associates with particles of the insoluble metal salt
solubility in histidine buffer [4]: poorly soluble

SMILES: Cc1ccc2c(c1)nc(N)c1ncc(CCc3ccc(OCCCC(F)(F)P(=O)(O)O)cc3C)cc12 [Compound 5, 4-(4-(2-(5-amino-8-methylbenzo[f][1,7]naphthyridin-2-yl)ethyl)-3-methylphenoxy)-1,1-difluorobutylphosphonic acid]
presence of compound in supernatant when aluminum hydroxide included (HPLC) ([1]; pH 6.7, 10 mM histidine buffer, aluminium hydroxide 2 mg/mL): not present in the supernatant
presence of compound in supernatant when aluminum hydroxide included (HPLC) [1, 12]: not present in the supernatant

SMILES: Cc1cc(OCCCC(F)(F)P(=O)(O)O)ccc1CCc1cnc2c(N)nc3cc(CCC(=O)O)ccc3c2c1 [Compound 16, 3-(5-amino-2-(4-(4,4-difluoro-4-phosphonobutoxy)-2-methylphenethyl)benzo[f][1,7]naphthyridin-8-yl)propanoic acid]
muscle level of compound [5, 13]: readily detected
muscle level of compound [5, 14]: undetectable
serum concentration profile over 24 hours [6, 15]: much flatter response which is sustained for a longer period
serum concentration profile over 24 hours ([6]; unadsorbed (buffer alone)): high initial serum concentration which rapidly declines
compound in supernatant after addition of aluminum hydroxide (HPLC) [7]: no compound was observed in the supernatant
% bound to alum [8, 16]: 94.5%

muscle level of compound [5, 13]: readily detected
muscle level of compound [5, 14]: undetectable
% bound to alum [8, 16]: 96.2%
SMILES: Cc1cc(OCCOCCOCCC(F)(F)P(=O)(O)O)ccc1CCc1cnc2c(N)nc3cc(CCC(=O)O)ccc3c2c1 [Compound 17, 3-(5-amino-2-(4-(2-(2-(3,3-difluoro-3-phosphonopropoxy)ethoxy)ethoxy)-2-methylphenethyl)benzo[f][1,7]naphthyridin-8-yl)propanoic acid]
compound in supernatant after addition of aluminum hydroxide (HPLC) [7]: no compound was observed in the supernatant

% bound to alum ([8]; 5 h, 0.1 mg/mL, pH 6.8): 96.0%
SMILES: Cc1cc(OCCOCCC(F)(F)P(=O)(O)O)ccc1CCc1cnc2c(N)nc3cc(CCC(=O)O)ccc3c2c1 [Compound 19, 3-(5-amino-2-(4-(2-(3,3-difluoro-3-phosphonopropoxy)ethoxy)-2-methylphenethyl)benzo[f][1,7]naphthyridin-8-yl)propanoic acid]

SMILES: Cc1ccc2c(c1)nc(N)c1ncc(CCc3ccc(OCCOCCOCCC(F)(F)P(=O)(O)O)cc3C)cc12 [Compound 6, 3-(2-(2-(4-(2-(5-amino-8-methylbenzo[f][1,7]naphthyridin-2-yl)ethyl)-3-methylphenoxy)ethoxy)ethoxy)-1,1-difluoropropylphosphonic acid]
muscle level of compound [5, 13]: readily detected
muscle level of compound [5, 14]: undetectable
bactericidal (SBA) titer against strain NZ98 [9]: large increase in SBA titer
serum IL-6 level compared to vehicle alone [10, 17]: < 2 fold
serum MCP-1 level compared to vehicle alone [10, 17]: < 2 fold
serum mKC level compared to vehicle alone [10, 17]: < 2 fold
serum IL-6 level compared to vehicle alone ([10]; without adjuvant): ~4 fold
serum MCP-1 level compared to vehicle alone ([10]; without adjuvant): ~20 fold
serum mKC level compared to vehicle alone ([10]; without adjuvant): ~4 fold
proportion of CD86+ B-cells [11, 15]: ~15%
effect of adsorption on proportion of CD4+ T-cells which are also CD69+ ([11]; adsorbed vs unadsorbed, spleen and draining lymph nodes): decreases
proportion of CD86+ B-cells ([11]; without adsorption to aluminium hydroxide adjuvant): ~75%
% bound to alum [8, 16]: 98.2%
